Here are results for 3 compounds from paper PMC7232201 (Microorganisms, 2020).

This experiment has as its target T1, ArsR (Helicobacter pylori, UniProt O24973).
T1 construct: expressed in E. coli BL21(DE3)
In words: isothermal titration calorimetry. It is filed as binding. As to conditions: read-out: ITC ^a / Kd. On the technique in general: In ITC the heat of successive injections is recorded.

Counter-ions that a name gives are not always drawn.

T1 sequence (O24973 whole entry): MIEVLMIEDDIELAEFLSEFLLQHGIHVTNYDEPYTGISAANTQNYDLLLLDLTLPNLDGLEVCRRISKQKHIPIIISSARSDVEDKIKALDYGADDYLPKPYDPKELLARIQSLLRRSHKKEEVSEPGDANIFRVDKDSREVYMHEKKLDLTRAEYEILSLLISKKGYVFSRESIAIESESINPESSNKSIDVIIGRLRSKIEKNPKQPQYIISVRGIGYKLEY

Turning to `CC[N+](C)(CC)CCC[n+]1c(-c2ccccc2)c2cc(N)ccc2c2ccc(N)cc21` [Propidium iodide], the Kd came out at 18 µM.

Take `C[C@H](CCC(=O)O)[C@H]1CC[C@H]2[C@@H]3CC[C@@H]4C[C@H](O)CC[C@]4(C)[C@H]3CC[C@]12C` [Lithocholic acid]: the Kd is 4.9 µM.

With `CCCCCN(CCCCC)C(=O)C(CCC(=O)O)NC(=O)c1ccc(Cl)c(Cl)c1` (stereo not drawn) [Lorglumide sodium salt], the Kd was 0.67 µM.
